Assays:
bedstraw = assay: Test B pre/postemergence bedstraw; type: in vivo, Galium aparine
Procedure, shortened: (§1)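 Test chemicals in a non-phytotoxic solvent mixture with surfactant were sprayed preemergence onto planted seeds and postemergence onto plants 2 to 18 cm tall (1- to 4-leaf stage). After twelve to sixteen days in a greenhouse, injury was visually rated against untreated controls from 0 (no effect) to 10 (complete control).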

blackgrass = assay: Test B pre/postemergence blackgrass; type: in vivo, Alopecurus myosuroides
Procedure, shortened: as §1

crabgrass = assay: Test B pre/postemergence crabgrass; type: in vivo, Digitaria sanguinalis
Procedure, shortened: as §1

purple nutsedge = assay: Test B pre/postemergence purple nutsedge; type: in vivo, Cyperus rotundus
Procedure, shortened: as §1

[1] = Preemergence, Rate 250 g/ha, scale of 0 to 10 where 0 is no effect and 10 is complete control
[2] = Preemergence, Rate 500 g/ha, scale of 0 to 10 where 0 is no effect and 10 is complete control
[3] = Rate 62 g/ha, Postemergence, scale 0 to 10 (0 no effect, 10 complete control)
[4] = Rate 125 g/ha, Postemergence, scale of 0 to 10 where 0 is no effect and 10 is complete control
[5] = Rate 125 g/ha, Preemergence, scale of 0 to 10 where 0 is no effect and 10 is complete control
[6] = Rate 250 g/ha, Postemergence, scale of 0 to 10 where 0 is no effect and 10 is complete control
[7] = Rate 500 g/ha, Postemergence, scale 0 to 10, 0 no effect, 10 complete control
[8] = Preemergence, Rate 62 g/ha, scale of 0 to 10 where 0 is no effect and 10 is complete control
[9] = Rate 62 g/ha, Postemergence, scale of 0 to 10 where 0 is no effect and 10 is complete control
[10] = Rate 125 g/ha, Postemergence, scale 0 to 10, 0 is no effect, 10 is complete control
[11] = Postemergence, Rate 250 g/ha, scale 0 to 10
[12] = Postemergence, Rate 500 g/ha, scale of 0 to 10 where 0 is no effect and 10 is complete control
[13] = Preemergence, Rate 62 g/ha, scale 0 to 10 (0 no effect, 10 complete control)
[14] = Preemergence, Rate 125 g/ha, scale of 0 to 10 where 0 is no effect and 10 is complete control
[15] = Preemergence, Rate 250 g/ha, scale 0 to 10, 0 is no effect, 10 is complete control
[16] = Preemergence, Rate 500 g/ha, scale 0 to 10, 0 is no effect, 10 is complete control
[17] = Preemergence, Rate 250 g/ha, scale 0 to 10 (0 no effect, 10 complete control)
[18] = Rate 1000 g/ha, Preemergence, scale 0 to 10 (0 no effect, 10 complete control)
[19] = Postemergence, Rate 125 g/ha, scale of 0 to 10 where 0 is no effect and 10 is complete control
[20] = Postemergence, Rate 250 g/ha, scale of 0 to 10, 0 is no effect, 10 is complete control
[21] = Postemergence, Rate 1000 g/ha, scale 0 to 10 (0 no effect, 10 complete control)
[22] = Postemergence, Rate 62 g/ha, scale 0 to 10, 0 is no effect, 10 is complete control

## Cc1ccccc1-n1c(=O)on(C(=O)N(c2ccc3c(c2)CCC3)C(C)C)c1=O [Compound 278]
bedstraw; [1]
  Bedstraw plant response rating: 0
bedstraw; [2]
  Plant response rating, Bedstraw: 0
bedstraw; [3]
  Bedstraw plant response rating: 0
bedstraw; [4]
  Bedstraw plant response rating: 0
bedstraw; [5]
  Bedstraw plant response rating: 0
bedstraw; [6]
  Plant response rating, Bedstraw: 6
bedstraw; [7]
  Bedstraw plant response rating: 8
blackgrass; [8]
  Blackgrass plant response rating: 0
blackgrass; [1]
  Blackgrass plant response rating: 0
blackgrass; [2]
  Plant response rating, Blackgrass: 0
blackgrass; [3]
  Blackgrass plant response rating: 0
blackgrass; [4]
  Blackgrass plant response rating: 0
blackgrass; [5]
  Blackgrass plant response rating: 0
blackgrass; [6]
  Plant response rating, Blackgrass: 0
blackgrass; [7]
  Blackgrass plant response rating: 0
crabgrass; [8]
  Crabgrass plant response rating: 0
crabgrass; [1]
  Crabgrass plant response rating: 2
crabgrass; [2]
  Plant response rating, Crabgrass: 4
crabgrass; [3]
  Crabgrass plant response rating: 0
crabgrass; [4]
  Crabgrass plant response rating: 0
crabgrass; [5]
  Crabgrass plant response rating: 1
crabgrass; [6]
  Plant response rating, Crabgrass: 0
crabgrass; [7]
  Crabgrass plant response rating: 0
Purple nutsedge; [1]
  Nutsedge plant response rating: 0
Purple nutsedge; [3]
  Nutsedge plant response rating: 0
Purple nutsedge; [4]
  Nutsedge plant response rating: 0
Purple nutsedge; [5]
  Nutsedge plant response rating: 0
Purple nutsedge; [6]
  Plant response rating, Nutsedge: 0
Purple nutsedge; [7]
  Nutsedge plant response rating: 0

## CC(C)N(C(=O)n1oc(=O)n(CC#N)c1=O)c1ccccc1 [Compound 434]
bedstraw; [9]
  Bedstraw plant response rating: 0
bedstraw; [10]
  Bedstraw plant response rating: 0
blackgrass; [11]
  Blackgrass plant response rating: 0
blackgrass; [12]
  Blackgrass plant response rating: 0
blackgrass; [13]
  Plant response rating, Blackgrass: 0
blackgrass; [14]
  Plant response rating, Blackgrass: 0
blackgrass; [15]
  Blackgrass plant response rating: 0
blackgrass; [16]
  Blackgrass plant response rating: 0
blackgrass; [9]
  Blackgrass plant response rating: 0
blackgrass; [10]
  Blackgrass plant response rating: 0
crabgrass; [11]
  Crabgrass plant response rating: 1
crabgrass; [12]
  Crabgrass plant response rating: 4
crabgrass; [13]
  Plant response rating, Crabgrass: 0
crabgrass; [14]
  Plant response rating, Crabgrass: 0
crabgrass; [15]
  Crabgrass plant response rating: 0
crabgrass; [16]
  Crabgrass plant response rating: 1
crabgrass; [9]
  Crabgrass plant response rating: 0
crabgrass; [10]
  Crabgrass plant response rating: 0
Purple nutsedge; [11]
  Nutsedge plant response rating: 0
Purple nutsedge; [12]
  Nutsedge plant response rating: 0
Purple nutsedge; [13]
  Plant response rating, Nutsedge: 0
Purple nutsedge; [14]
  Plant response rating, Nutsedge: 0
Purple nutsedge; [15]
  Nutsedge plant response rating: 0
Purple nutsedge; [16]
  Nutsedge plant response rating: 0
Purple nutsedge; [10]
  Nutsedge plant response rating: 0

## CC(C)N(C(=O)n1oc(=O)n(C(C)C(=O)N(C)C)c1=O)c1ccc(F)cc1 (stereo not shown) [Compound 478]
bedstraw; [14]
  Plant response rating, Bedstraw: 8
bedstraw; [15]
  Bedstraw plant response rating: 8
bedstraw; [3]
  Bedstraw plant response rating: 0
bedstraw; [10]
  Bedstraw plant response rating: 0
blackgrass; [11]
  Blackgrass plant response rating: 8
blackgrass; [12]
  Blackgrass plant response rating: 8
blackgrass; [8]
  Plant response rating, Blackgrass: 4
blackgrass; [14]
  Plant response rating, Blackgrass: 8
blackgrass; [15]
  Blackgrass plant response rating: 10
blackgrass; [16]
  Blackgrass plant response rating: 10
blackgrass; [3]
  Blackgrass plant response rating: 0
blackgrass; [10]
  Blackgrass plant response rating: 2
crabgrass; [11]
  Crabgrass plant response rating: 8
crabgrass; [12]
  Crabgrass plant response rating: 9
crabgrass; [8]
  Plant response rating, Crabgrass: 8
crabgrass; [14]
  Plant response rating, Crabgrass: 9
crabgrass; [15]
  Crabgrass plant response rating: 10
crabgrass; [16]
  Crabgrass plant response rating: 10
crabgrass; [3]
  Crabgrass plant response rating: 2
crabgrass; [10]
  Crabgrass plant response rating: 3
Purple nutsedge; [11]
  Nutsedge plant response rating: 0
Purple nutsedge; [8]
  Plant response rating, Nutsedge: 0
Purple nutsedge; [14]
  Plant response rating, Nutsedge: 0
Purple nutsedge; [15]
  Nutsedge plant response rating: 0
Purple nutsedge; [16]
  Nutsedge plant response rating: 3
Purple nutsedge; [3]
  Nutsedge plant response rating: 0
Purple nutsedge; [10]
  Nutsedge plant response rating: 0

## CCOP(=O)(OCC)C(C)n1c(=O)on(C(=O)N(c2ccc(F)cc2)C(C)C)c1=O (stereo not shown) [Compound 617]
bedstraw; [14]
  Bedstraw plant response rating: 0
bedstraw; [17]
  Plant response rating, Bedstraw: 0
bedstraw; [2]
  Bedstraw plant response rating: 0
bedstraw; [18]
  Plant response rating, Bedstraw: 0
blackgrass; [19]
  Plant response rating, Blackgrass: 0
blackgrass; [20]
  Blackgrass plant response rating: 0
blackgrass; [12]
  Plant response rating, Blackgrass: 0
blackgrass; [21]
  Blackgrass plant response rating: 6
blackgrass; [14]
  Blackgrass plant response rating: 0
blackgrass; [17]
  Plant response rating, Blackgrass: 6
blackgrass; [2]
  Blackgrass plant response rating: 6
blackgrass; [18]
  Plant response rating, Blackgrass: 10
crabgrass; [19]
  Plant response rating, Crabgrass: 0
crabgrass; [20]
  Crabgrass plant response rating: 2
crabgrass; [12]
  Plant response rating, Crabgrass: 0
crabgrass; [21]
  Crabgrass plant response rating: 7
crabgrass; [17]
  Plant response rating, Crabgrass: 5
crabgrass; [2]
  Plant response rating, Crabgrass: 8
crabgrass; [18]
  Plant response rating, Crabgrass: 8
Purple nutsedge; [19]
  Plant response rating, Nutsedge: 0
Purple nutsedge; [12]
  Plant response rating, Nutsedge: 0
Purple nutsedge; [21]
  Nutsedge plant response rating: 0
Purple nutsedge; [14]
  Nutsedge plant response rating: 0
Purple nutsedge; [17]
  Plant response rating, Nutsedge: 0
Purple nutsedge; [2]
  Plant response rating, Nutsedge: 5
Purple nutsedge; [18]
  Plant response rating, Nutsedge: 8

## COC(=O)C(C)n1c(=O)on(C(=O)N(c2ccc(Cl)cc2)C(C)C)c1=O (stereo not shown) [Compound 623]
blackgrass; [19]
  Plant response rating, Blackgrass: 3
blackgrass; [20]
  Blackgrass plant response rating: 4
blackgrass; [12]
  Plant response rating, Blackgrass: 6
blackgrass; [21]
  Blackgrass plant response rating: 7
blackgrass; [14]
  Blackgrass plant response rating: 0
blackgrass; [17]
  Plant response rating, Blackgrass: 0
blackgrass; [18]
  Plant response rating, Blackgrass: 2
crabgrass; [19]
  Plant response rating, Crabgrass: 0
crabgrass; [20]
  Crabgrass plant response rating: 0
crabgrass; [12]
  Plant response rating, Crabgrass: 0
crabgrass; [21]
  Crabgrass plant response rating: 3
crabgrass; [14]
  Crabgrass plant response rating: 0
crabgrass; [17]
  Plant response rating, Crabgrass: 0
crabgrass; [18]
  Plant response rating, Crabgrass: 0
Purple nutsedge; [19]
  Plant response rating, Nutsedge: 0
Purple nutsedge; [20]
  Nutsedge plant response rating: 0
Purple nutsedge; [14]
  Nutsedge plant response rating: 0
Purple nutsedge; [17]
  Plant response rating, Nutsedge: 0
Purple nutsedge; [2]
  Plant response rating, Nutsedge: 0
Purple nutsedge; [18]
  Plant response rating, Nutsedge: 0

## CC(C)N(C(=O)n1oc(=O)n(CC(=O)C2CC2)c1=O)c1ccc(Cl)cc1 [Compound 639]
blackgrass; [22]
  Plant response rating, Blackgrass: 0
blackgrass; [19]
  Plant response rating, Blackgrass: 0
blackgrass; [20]
  Blackgrass plant response rating: 2
blackgrass; [12]
  Plant response rating, Blackgrass: 6
blackgrass; [8]
  Blackgrass plant response rating: 0
blackgrass; [14]
  Blackgrass plant response rating: 0
blackgrass; [17]
  Plant response rating, Blackgrass: 2
blackgrass; [2]
  Plant response rating, Blackgrass: 2
crabgrass; [22]
  Plant response rating, Crabgrass: 0
crabgrass; [20]
  Crabgrass plant response rating: 2
crabgrass; [12]
  Plant response rating, Crabgrass: 8
crabgrass; [8]
  Crabgrass plant response rating: 7
crabgrass; [14]
  Crabgrass plant response rating: 7
crabgrass; [17]
  Plant response rating, Crabgrass: 9
crabgrass; [2]
  Plant response rating, Crabgrass: 9
Purple nutsedge; [22]
  Plant response rating, Nutsedge: 0
Purple nutsedge; [19]
  Plant response rating, Nutsedge: 0
Purple nutsedge; [8]
  Nutsedge plant response rating: 0
Purple nutsedge; [14]
  Nutsedge plant response rating: 0
Purple nutsedge; [17]
  Plant response rating, Nutsedge: 0
Purple nutsedge; [2]
  Plant response rating, Nutsedge: 0

— patent US6737383B1, “Herbicidal oxadiazolidines” (priority 1999, dated 2004)
